Data on three compounds can be found in patent US20100125073A1, “BENZOFURAN AND BENZOTHIOPHENE DERIVATIVES USEFUL IN THE TREATMENT OF CANCERS OF THE CENTRAL NERVOUS SYSTEM” (priority 2006, published 2010).

Where only a bound is given, the exact number is not on record here.

The nature of series [1]: Solubility in aqueous 5% dextrose. Format: physicochemical. As to conditions: for solubility thermodynamic at 24 h: saline or isotonic, thermodynamic from solid, 5% Dextrose. The protocol:
The test compound is dissolved in an aqueous solution of 5% dextrose adjusted to the respective pH with 1n HCl. After shaking at room temperature for 24 h the probe is subjected to an ultra centrifugation process at 224000 g for 30 min. DMSO is added to the supernatant and the content of test compound is determined and quantified by HPLC employing a two point calibration curve of the test compound in DMSO.
HPLC Method: Agilent 1100 with DAD (G1315A), quat. Pump (G1311A), Autosampler CTC HTS PAL, Degaser (G1322A) and column thermostate (G1316A); Column: Zorbax Extend-C18 3.5μ; temperature: 40° C.; Eluent A: Water+5 ml Perchloric acid/1; Eluent B: Acetonitrile; flow rate: 0.7 mL/min; Gradient: 0-0.5 min 98% A, 2% B; Rampe: 0.5-4.5 min 10%, A 90% B; 4.5-6 min 10% A, 90% B; Rampe: 6.5-6.7 min 98% A, 2% B; 6.7-7.5 min 98% A, 2% B.

A short description of series [2]: Stability in rat plasma. As to conditions: within 1 hour. Type of series: in vitro ADME.
Series [3] is described as follows: Stability in buffer at different pH-values. Type of series: physicochemical. The protocol: To determine the stability of test compounds at different pH-values 0.3 mg of the dry compound is dissolved in 0.5 ml of acetonitrile and the sample is sonified for 10 seconds. Then buffer solutions are added and the samples are sonified again.
pH 2: 0.03 M citric acid/0.0082 M hydrochloric acid/0.061 M sodium chloride pH 3: 0.04 M citric acid/0.021 M sodium hydroxide/0.06 M sodium chloride pH 4: 0.056 M citric acid/0.068 M sodium hydroxide/0.044 M Sodium chloride pH 5: 0.096 M citric acid/0.2 M sodium hydroxide pH 7: 0.029 M sodium hydroxide solution/0.05 M potassium dihydrogen phosphate pH 10: 0.013 M sodium tetraborate/0.018 M sodium hydroxide
The test compound concentrations in solution is analyzed by HPLC every hour during 24 hours at 37° C.
Agilent 1100 with DAD (G1314A), binary pump (G1312A), autosampler (G1329A), column thermostat (G1316A), thermostat (G1330A), Column: Kromasil 100 C18/60×2.1 mm/3.5 μm, Column temperature: 37° C., Eluent A: Water+5 ml perchloric acid/1, Eluent B: Acetonitrile, Gradient: 0-1.0 min 98% A, 2% B; 1.0-9.0 min 2% A, 98% B; 9.0-13.0 min 2% A, 98% B; 13.0-13.5 min 98% A, 2% B; 13.5-15.0 98% A, 2% B, Flow rate: 0.75 ml/min, Detection: 210 nm

Series [4] in a line: Stability in human plasma. Type of series: in vitro ADME. As to conditions: within 1 hour.
Series [5] is described as follows: Crossing blood brain barrier in mice. Type of series: in vivo, Male Ncr nude mice. As to conditions: 200 mg/kg orally for 14 days. The protocol: Male Ncr nude mice (n=3/time point) is treated for 14 days orally with a therapeutically relevant dose of example 153 (200 mg/kg) or a vehicle control (time: Oh). Daily treatment with a high dose like this is necessary to effectively treat subcutaneously transplanted tumors in these mice. After treatment, mice are sacrified at indicated time points, blood and brain tissue is removed and analysed. The method is as described above in example 2 under “Stability in rat and human plasma”. […] Mean brain concentrations are indicated as absolute concentration and relative to plasma concentration at similar time points (from the same experiment) in the table below.

The test system of series [6] is U87 MG (human glioma) cells. The series can be described thus: Proliferation assay (CellTiter-Glo), U87 MG. As to conditions: U-87 MG, n = 2. Type of series: cell-based. The protocol:
(§1) SK-N-DZ (human neuroblastoma; ATCC# CRL-2149) or U118 MG (human glioblastoma/astrocytoma; ATCC# HTB-15) or U87 MG (human glioma; ATCC# HTB-14) or H4 (human neuroglioma; ATCC# HTB 178) cells are cultivated under standard conditions (RPMI 1640/Glutamax 2 mM/glucose 2 g/l/SoBicarbonate 2 g/1/10% FCS; 37° C. in 5% CO2 in a humid incubator). Cells are suspended using Accutase (PAA) and seeded at 1000 cells/Well in 100 μL medium/well in a 96-well plate (Greiner Kat. Nr. 655073). The test compound is added 24 Stunden after seeding. Commercial assays (CellTiter-Glo® Luminescent Cell Viability Assay; Promega Kat. Nr. G7571) are used 72 later according to the manufacturers instructions. IC50 is calculated using GraphPad Prism.
(§2) Compounds are solved in 100% DMSO and diluted 1:20 in medium before used diluted 1:10 in the test.
A general note: Cellular ATP, detected with luciferase, serves as a proxy for viable cell number.

The subject of series [7] is U118 MG (human glioblastoma/astrocytoma) cells. The series can be described thus: Proliferation assay (CellTiter-Glo), U118 MG. Type of series: cell-based. As to conditions: U-118-MG, n = 4. Here is the method:
as §1, §2

Series [8] deals with H4 (human neuroglioma) cells. Description: Proliferation assay (CellTiter-Glo), H4. Type of series: cell-based. As to conditions: n = 1. Here is the method:
as §1, §2

Series [9] concerns SK-N-DZ (human neuroblastoma) cells. Description: Proliferation assay (CellTiter-Glo), SK-N-DZ. Format: cell-based. As to conditions: 72 after compound addition, n = 4. Here is the method: as §1, §2

Broadly, the solubility is the concentration that dissolves in the medium under given conditions. `CS(=O)(=O)NCc1cccc(-c2ccc3c(N)c(C(=O)c4ccc(Cl)cc4Cl)oc3c2)c1` [N-{3-[3-amino-2-(2,4-dichlorobenzoyl)-1-benzofuran-6-yl]benzyl}methanesulfonamide]: the solubility at 24 h in series [1] (aqueous 5% dextrose solution, parent compound, pH not stated) was under 0.1 µg/mL.

As usually defined, the thermodynamic solubility is the concentration in solution at equilibrium with solid. As for `CC(C)[C@H](N)C(=O)N(Cc1cccc(-c2ccc3c(N)c(C(=O)c4ccc(Cl)cc4Cl)oc3c2)c1)S(C)(=O)=O.Cl` [Example 366, N-{3-[3-amino-2-(2,4-dichlorobenzoyl)-1-benzofuran-6-yl]benzyl}-N-(methylsulfonyl)-L-valinamide, hydrochloride], the “degradation during solubility determination” value in series [1] (5% dextrose, 24 h room temperature) is reported as “no degradation has been observed”. Moreover, the thermodynamic solubility at 24 h amounted to 360 µg/mL in [1] (aqueous 5% dextrose solution, pH 3, 24 h room temperature) and 350 µg/mL in series [1] (aqueous 5% dextrose solution, pH 4, 24 h room temperature). Also, the cleaved in plasma result in series [2] and in series [4] was “more than 90%” each time. Moreover, the “Amount of remaining compound” value in [3] (buffer pH 2, after 24 h at 37° C.) was determined as 100%; in series [3] (buffer pH 3, after 24 h at 37° C.) it was 100%; in series [3] (buffer pH 4, after 24 h at 37° C.) it was 94%; in series [3] (buffer pH 5, after 24 h at 37° C.), 58%; in [3] (buffer pH 7, after 24 h at 37° C.) it was 4%; in series [3] (buffer pH 10, after 24 h at 37° C.), 2%.

One may read the IC50 as the concentration at which inhibition is half-maximal. As to `CS(=O)(=O)NCc1cccc(-c2ccc3c(N)c(C(=O)c4ccc(Cl)cc4Cl)oc3c2)c1` [Example 153, N-{3-[3-amino-2-(2,4-dichlorobenzoyl)-1-benzofuran-6-yl]benzyl}methanesulfonamide], in [5], the “crossing of the blood brain barrier” value is listed as “crosses the blood brain barrier”. The “brain concentration % of Plasma concentration” value in series [5] (0.167 h) was 9-19%; in series [5] (0.5 h), 17-18%; in [5] (1.5 h), 12-90%. Also, the concentration at 0.167 h in series [5] (male, Ncr nude, mouse, brain, po, 0.167 h) amounted to 600 ng/mL. This compound also yielded a concentration at 0.5 h in series [5] (male, Ncr nude, mouse, brain, po, 0.5 h) of 1400 ng/mL. In [5] (male, Ncr nude, mouse, brain, po, 1.5 h), the concentration at 1.5 h is 1000 ng/mL. Moreover, the IC50 in [6] was 320 nM; in series [7] it was 120 nM; in [8] it was 170 nM; in [9], 110 nM.
